Assay results as given in patent publication US6916845B2, “Method for prevention and treatment of male and female sexual dysfunction” (priority 1999, dated 2005).
Read-outs that look alike come from different tables or passages of the source. Marks after values point to notes of the source that are not given here.

Columns and labels:
SD rat = assay type: in vivo; conditions: for LDso: once subcutaneously, after 7 days
Protocol: To investigate an acute toxicity of icariin, icariin was administered to SD rat. Total of 50 rats divide into 5 groups randomly and each group included 5 male and 5 female rats, respectively. The maximum dosage group for 3.0 g/kg, medium dosage group for 2.0 g/kg, sub-medium group for 1.0 g/kg and the minimum dosage group for 0.5 g/kg and comparative group for physiological saline solution only. Each of the drugs was once administered subcutaneously. After 7 days, it was shown that LDso of male was 1.88 g/kg and female was 1.96 g/kg.

[1] = test system: rabbit's CC smooth muscle; experiment: Relaxation of PHE pre-contracted corpus cavernosum smooth muscle strips in organ chamber; assay type: cell-based
Protocol: Sixty adults male New Zealand white rabbits(Weight: 2.5-3.0 kg) were used. Rabbits were anesthesia with sodium pentobarbital(50 mg/kg), penis was removed and corpus cavernous tissue were carefully isolated and made into 2×2×6 mm muscle strips for isometric tension was measured in organ chamber in vitro study with polygraph(MP 100 WS:Biopac systems, USA). CC muscle strip was fixed in 10 ml organ chamber containing Tyrode solution and continuously supplied with mixed gas(95% O2 and 5% CO2) and keep temperature at 37° C. The initial resting tensions of muscle strips were set at 2 g and tissue was allowed to equilibrate for 1.5-3.0 hours. Sub-maximal contractile responses to phenylepherine(PHE 5×10^-6 M) were observed and optimal isometric tension was determined. To evaluate the relaxation effects of icariin (the other components magnoflorine, querectin, epimedin A, B and C as the controls) on CC muscle strips, investigated the relaxation effects of different dosage of icariin on muscle strips pre-contracted by PHE. And to investigate the pharmaceutical action mechanism, the effects of […] Nω-nitric-L-arginine(L-NNA), guanylate cyclase antagonist methylene blue and pyrogallol, soluble guanylate cyclase inhibitor 1H-[1,2,4]oxadiazolo[4,3,-a]quinoxalin-1-one (ODQ) on the relaxation effects of icariin on CC.

adult male rat [2] = experiment: Intracavernosal press (ICP) changes after intracavernosal administration and cavernous nerve electrical stimulation; assay type: in vivo; conditions: CN stimulation 10 minutes later
Protocol: (§1) Twenty-four male, adult Wistar rats(weight:300-350 g) were used. After anesthetization, the left carotid artery was cannulated to monitor mean arterial pressure (MAP). Bipolar electrodes were positioned on the cavernous nerve (CN); the right cavernous body was cannulated with 26 G needle connected with Biopack MP100 to monitor ICP changes. After intracavemosal administration of 100 μl different concentration Icariin or Reserpine (10^−8M to 10^−4M) respectively, the CN was electrically stimulated (ES) 10 minutes later and ICP and MAP were monitored. In order to investigate the possible mechanism of the effect of icariin on ICP changes, 100 μl different concentration guanylate cyclase inhibitor ODQ (10^−8M-10^−4M) were intracavemosal administrated 10 minutes after Icariin (100 μl 10^−4M) administration into CC, and then the ICP was measured during erection, which was, followed the ES.

adult male rat [3] = conditions: in vivo
Protocol: as §1

[4] = test system: cGMP formation in rabbit corpus cavernosum; experiment: cGMP formation in corpus cavernosum of penis stimulated with SNP, radioimmunoassay; assay type: cell-based; conditions: in the presence of SNP
[5] = test system: cAMP formation in rabbit corpus cavernosum; experiment: cAMP formation in corpus cavernosum of penis stimulated with SNP, radioimmunoassay; assay type: cell-based
[6] = target: T1, PDE5 isolated from human platelets (Homo sapiens, UniProt O76074); experiment: Inhibition of cGMP specific PDE5, two-step radioisotope procedure; assay type: biochemical
T1 construct: PDE5 and PDE4 were isolated from human platelets and liver tissue using a Pharmacia FPLC system and Mono Q column; from tissue; host or cells: human platelets
Protocol: (§2) PDE5 and PDE4 were isolated from human platelets and liver tissue using a Pharmacia FPLC system and Mono Q column. The cyclic nucleotide PDE5/PDE4 activities in FPLC fractions were determined using a modification of the two-step radioisotope procedure ([^3H]GMP/[^3H]AMP).

[7] = test system: PDE4 isolated from human liver tissue; experiment: Inhibition of cAMP specific PDE4, two-step radioisotope procedure; assay type: biochemical
Protocol: as §2

[8] = test system: cGMP formation in clitoris CC of female rabbits; experiment: cGMP formation in CC of clitoris stimulated with SNP, radioimmunoassay; assay type: cell-based, rabbit
[9] = test system: castrated male Wistar rats; experiment: Sexual activities (mating behavior) in castrated rat model after long-term oral administration; assay type: in vivo; conditions: Group C and D, oral icariin for 3 months, n=10/12
Protocol: (§3) Male Wistar rats(300-350 g)(n=24) randomly divide into 4 Groups; Group A for control; Group B for castrated and administration normal saline; Group C for castrated and oral administration Icariin […]; Group D for castrated and oral administration Icariin (5 mg/kg) for 3 months. After observe mating behavior, the animal was killed, the penis was excised rapidly, and cut into four parts. One of them used for immuohistochemical stain, the others was socked into RNAlater and stored in −70 condition. nNOS, eNOS, iNOS mRNA were semi-quantified by RT-PCR, β-actin as a controls. Specificity of RT-PCR products was confirmed by sequencing procedure, with-assay and between-assay variation was carried out respectively.

iNOS mRNA = iNOS mRNA expression in penis of castrated rat model by RT-PCR; assay type: in vivo; conditions: for Mean conc./area (iNOS) / Ratio (iNOS/β-actin): castrated, 3 months
Protocol: as §3

nNOS mRNA = nNOS mRNA expression in penis of castrated rat model by RT-PCR; assay type: in vivo; conditions: for Mean conc./area (nNOS) / Ratio (nNOS/β-actin): castrated, 3 months
Protocol: as §3

Structure (SMILES): COc1ccc(-c2oc3c(CC=C(C)C)c(O[C@@H]4O[C@H](CO)[C@@H](O)[C@H](O)[C@H]4O)cc(O)c3c(=O)c2O[C@@H]2O[C@@H](C)[C@H](O)[C@@H](O)[C@H]2O)cc1 [Icariin, icariin]
- acute toxicity (SD rat; SD rat, subcutaneous): low toxicity
- LDso (SD rat; female SD rat): 1960 mg/kg
- LDso (SD rat; male SD rat): 1880 mg/kg
- EC50 ([1]; Oryctolagus cuniculus, read-out: EC50 on the relaxation effects of CC smooth muscle): 467 µM
- relaxation effects on pre-contracted CC muscle strips ([1]; icariin 10^−4M): 23.12 ± 1.36%
- relaxation effects on pre-contracted CC muscle strips ([1]; icariin 10^−5M): 4.42±1.08%
- relaxation effects on pre-contracted CC muscle strips ([1]; icariin 10^−6M): 1.23±0.82%
- relaxation effects on pre-contracted CC muscle strips ([1]; icariin 10^−7M): 0.08±0.04%
- Increase ICP (adult male rat [2]; 100 μl 10^−4M intracavernosal): 58.01 ± 5.78%
- Increase ICP (adult male rat [2]; 100 μl 10^−5M intracavernosal): 30.48 ± 3.06%
- Increase ICP (adult male rat [2]; 100 μl 10^−6M intracavernosal): 10.82 ± 1.06%
- Increase ICP (adult male rat [2]; 100 μl 10^−7M intracavernosal): 5.53 ± 0.69%
- influence on MAP (adult male rat [3]): no obviously influence
- cGMP concentration changes ([4]; 10^−3M): 10.43 ± 1.49 fmol/mg/min
- cGMP concentration changes ([4]; 10^−4M): 10.82 ± 1.58 fmol/mg/min
- cGMP concentration changes ([4]; 10^−5M): 8.92 ± 1.67 fmol/mg/min
- cGMP concentration changes ([4]; 10^−6M): 8.66 ± 2.03 fmol/mg/min
- influence on cAMP levels [5]: no significantly influenced
- IC50 [6]: 0.432 µM
- inhibiting potency on PDE5 weaker than that of Sildenafil [6]: 108.10 times
- specificity of inhibition PDE5 compared to PDE4 ([6]; ratio of IC50 PDE4/PDE5): 170.14 times
- IC50 [7]: 73.5 µM
- cGMP concentration in clitoris CC [8]: significantly increased
- EC50 ([8]; Oryctolagus cuniculus, read-out: EC50 (cGMP formation, CC of clitoris)): 3.16 µM
- castrated rats restored sexual activities [9]: 83.3%
- iNOS mRNA compared to control Group B (iNOS mRNA; Group C and D, p<0.05): significantly increased
- Mean conc./area (iNOS) (iNOS mRNA; Group C, oral Icariin (mg/kg)): 17.28
- Ratio (iNOS/β-actin) (iNOS mRNA; Group C, oral Icariin (mg/kg)): 0.50*
- Mean conc./area (iNOS) (iNOS mRNA; Group D, oral Icariin 5 mg/kg): 23.20
- Ratio (iNOS/β-actin) (iNOS mRNA; Group D, oral Icariin 5 mg/kg): 0.74*
- nNOS mRNA compared to control Group B (nNOS mRNA; Group C and D, p<0.05): significantly increased
- Mean conc./area (nNOS) (nNOS mRNA; Group C, oral Icariin (mg/kg)): 44.60
- Ratio (nNOS/β-actin) (nNOS mRNA; Group C, oral Icariin (mg/kg)): 0.82*
- Mean conc./area (nNOS) (nNOS mRNA; Group D, oral Icariin 5 mg/kg): 36.40
- Ratio (nNOS/β-actin) (nNOS mRNA; Group D, oral Icariin 5 mg/kg): 1.08*
